Assay results reported in patent US10941157B2, “Pesticidal compositions and uses thereof” (Gilead Apollo, LLC, priority 2015, dated 2021).
Converted amounts (≈) assume the structure as drawn. Like-named read-outs stand apart in the source and are kept apart here.

Assays:
Fusarium graminearum = format: in vivo; settings: spray on flowering Triticum aestivum cv. Samson, inoculated 24 hours after treatment, evaluated 14 days later
[1] = test system: Blumeria graminis f. sp. hordei; assay: Foliar protection test for barley powdery mildew control; format: in vivo; settings: foliar spray on Hordeum vulgare cv. Perry, inoculated 24 hours after treatment, evaluated 7 days later
Outline: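 Six-day-old barley (cv. Perry) sprayed to wetness on both leaf sides; 24 h later inoculated by shaking spores from infected stock plants. Kept at 20 to 22° C, 70% relative humidity; mildew colonization assessed 7 days later.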

Phakopsora pachyrhizi = assay: Foliar protection test for Asian soybean rust control; format: in vivo; settings: foliar application to soybean (Glycine max AG4832), percent disease area evaluated 14 days later
Diplodia maydis (Dm) = assay: In vitro pathogen growth inhibition assay, Dm; format: cell-based; settings: Stenocarpella maydis, 48 h
Outline: (§1)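 Spores in 17% V8 liquid medium, or 1.5 mm Rs mycelial plugs in ¼ PDB, incubated with compound; final concentration checked by OD600 for precipitation. OD readings at 24 and 48 h, blank-subtracted, plus visual ratings; value is concentration giving ≥90% growth inhibition.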

Rhizoctonia solani (Rs) = assay: In vitro pathogen growth inhibition assay, Rs (mycelial plugs); format: cell-based; settings: Rhizoctonia solani, 48 h, mycelial plugs
Outline: as §1

[2] = test system: Fusarium moniliforme (Fm); assay: In vitro pathogen growth inhibition assay, Fm; format: cell-based; settings: Fusarium verticillioides
Outline: as §1

Sphaerotheca fuliginea = assay: Foliar protection for cucumber powdery mildew control; format: in vivo; settings: foliar spray on Cucumis sativus cv. Straight Eight, inoculated 24 hours after treatment, evaluated 7 days later
Outline: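 Cucumber plants (cv. Straight Eight, 10 days old) sprayed to wetness on both leaf surfaces, then inoculated 24 h later by shaking sporulating stock plants over them. Held at 23–27 °C, 16 h light, 60% RH. Mildew colonization scored 7 days after inoculation, at compound concentrations of 10 ppm or lower.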

Botrtyis cinerea (Bc) = assay: In vitro pathogen growth inhibition assay, Bc; format: cell-based; settings: 48 h
Outline: as §1

Septoria tritici (St) = assay: In vitro pathogen growth inhibition assay, St; format: cell-based; settings: Zymoseptoria tritici, 48 h
Outline: as §1

[3] = test system: Mycosphaerella graminicola (synthetic Septoria tritici); assay: Foliar protection test for wheat septoria leaf blotch control; format: in vivo; settings: foliar spray on Triticum aestivum cv. WinterHawk, inoculated 1 hour after treatment, evaluated 16 days later
Puccinia triticina = assay: Foliar protection test for wheat leaf rust control; format: in vivo; settings: foliar application to wheat (Triticum aestivum cv. Winterhawk), evaluated 10 days later
[4] = test system: Phytophthora capsici (Pc); assay: In vitro pathogen growth inhibition assay, Pc; format: cell-based; settings: 48 h
Outline: as §1

[5] = test system: Collectotrichum graminicola (Cg); assay: In vitro pathogen growth inhibition assay, Cg; format: cell-based; settings: 48 h
Outline: as §1

[6] = test system: Fusarium virguliforme (Fv); assay: In vitro pathogen growth inhibition assay, Fv; format: cell-based
Outline: as §1

[7] = ≥90% growth inhibition, 48 hours, vs 2% DMSO control, read-out: Compound Concentration (ppm) sufficient for ≥90% inhibition of Dm
[8] = ≥90% growth inhibition, 48 hours, vs 2% DMSO control, read-out: Compound Concentration (ppm) sufficient for ≥90% inhibition of Rs
[9] = ≥90% growth inhibition, 48 hours, vs 2% DMSO control, read-out: Compound Concentration (ppm) sufficient for ≥90% inhibition of Fm
[10] = ≥90% growth inhibition, 48 hours, vs 2% DMSO control, read-out: Compound Concentration (ppm) sufficient for ≥90% inhibition of Bc
[11] = ≥90% growth inhibition, 48 hours, vs 2% DMSO control, read-out: Compound Concentration (ppm) sufficient for ≥90% inhibition of St
[12] = ≥90% growth inhibition, 48 hours, vs 2% DMSO control, read-out: Compound Concentration (ppm) sufficient for ≥90% inhibition of Pc
[13] = ≥90% growth inhibition, 48 hours, vs 2% DMSO control, read-out: Compound Concentration (ppm) sufficient for ≥90% inhibition of Cg
[14] = ≥90% growth inhibition, 48 hours, vs 2% DMSO control, read-out: Compound Concentration (ppm) sufficient for ≥90% inhibition of Fv

| Structure (SMILES) | Wheat Fusarium Head Blight Control at a compound concentration of 25 ppm or lower (Fusarium graminearum) | Barley Powdery Mildew Control at a compound concentration of 10 ppm or lower [1] | Asian Soybean Rust Control at a compound concentration of 25 ppm or lower (Phakopsora pachyrhizi) | Cucumber Powdery Mildew Control at a compound concentration of 10 ppm or lower (Sphaerotheca fuliginea) | Septoria Leaf Blotch Control at a compound concentration of 25 ppm or lower [3] | Wheat Leaf Rust Control at a compound concentration of 10 ppm or lower (Puccinia triticina) | IC90 (Diplodia maydis (Dm); [7]) | IC90 (Rhizoctonia solani (Rs); [8]) | IC90 [2, 9] | IC90 (Botrtyis cinerea (Bc); [10]) | IC90 (Septoria tritici (St); [11]) | IC90 [4, 12] | IC90 [5, 13] | IC90 [6, 14] | other results |
| --- | --- | --- | --- | --- | --- | --- | --- | --- | --- | --- | --- | --- | --- | --- | --- |
| COCCO[C@@H](Cn1c(=O)n(C(C)C(=O)NC(C)C)c(=O)c2c(C)c(-n3nccn3)sc21)c1cc(F)ccc1OC (stereo partly drawn) [Compound I-082, 2-(1-((R)-2-(5-fluoro-2-methoxyphenyl)-2-(2-methoxyethoxy)ethyl)-5-methyl-2,4-dioxo-6-(2H-1,2,3-triazol-2-yl)-1,4-dihydrothieno[2,3-d]pyrimidin-3 (2H)-yl)-N-isopropylpropanamide] | C (from 25 to 49% control of wheat fusarium head blight) | AA (≥85% control of barley powdery mildew) | B (from 50 to 69% control of Asian soybean rust) | AA (≥85% control of cucumber powdery mildew) | AA (≥85% control of wheat septoria leaf blotch) | B (from 50 to 69% control of wheat leaf rust) | – | – | – | – | – | – | – | – | IC90 (Diplodia maydis (Dm); ≥90% inhibition, 48 hours vs 2% DMSO control, read-out: Compound Concentration (ppm) sufficient for ≥90% inhibition of growth, Dm): 0.4 µg/mL (≈ 0.68 µM); IC90 (Rhizoctonia solani (Rs); ≥90% inhibition, 48 hours vs 2% DMSO control, read-out: Compound Concentration (ppm) sufficient for ≥90% inhibition of growth, Rs): 0.24 µg/mL (≈ 0.408 µM); IC90 ([2]; ≥90% inhibition, 48 hours vs 2% DMSO control, read-out: Compound Concentration (ppm) sufficient for ≥90% inhibition of growth, Fm): 0.08 µg/mL (≈ 0.136 µM); IC90 (Botrtyis cinerea (Bc); ≥90% inhibition, 48 hours vs 2% DMSO control, read-out: Compound Concentration (ppm) sufficient for ≥90% inhibition of growth, Bc): 2 µg/mL (≈ 3.4 µM); IC90 (Septoria tritici (St); ≥90% inhibition, 48 hours vs 2% DMSO control, read-out: Compound Concentration (ppm) sufficient for ≥90% inhibition of growth, St): 30 µg/mL (≈ 51 µM); IC90 ([4]; ≥90% inhibition, 48 hours vs 2% DMSO control, read-out: Compound Concentration (ppm) sufficient for ≥90% inhibition of growth, Pc): 10 µg/mL (≈ 17 µM); IC90 ([5]; ≥90% inhibition, 48 hours vs 2% DMSO control, read-out: Compound Concentration (ppm) sufficient for ≥90% inhibition of growth, Cg): 0.4 µg/mL (≈ 0.68 µM); IC90 ([6]; ≥90% inhibition, 48 hours vs 2% DMSO control, read-out: Compound Concentration (ppm) sufficient for ≥90% inhibition of growth, Fv): 0.4 µg/mL (≈ 0.68 µM) |
| COc1ccccc1[C@H](Cn1c(=O)n(C(C)(C)C(=O)NC(C)C)c(=O)c2c(C)c(-n3cccn3)sc21)OCCC#N [Compound I-192, (R)-2-(1-(2-(2-cyanoethoxy)-2-(2-methoxyphenyl)ethyl)-5-methyl-2,4-dioxo-6-(1H-pyrazol-1-yl)-1,4-dihydrothieno[2,3-d]pyrimidin-3 (2H)-yl)-N-isopropyl-2-methylpropanamide] | D (<25% control of wheat fusarium head blight) | AA (≥85% control of barley powdery mildew) | AA (≥85% control of Asian soybean rust) | AA (≥85% control of cucumber powdery mildew) | A (from 70% to 84% control of wheat septoria leaf blotch) | AA (≥85% control of wheat leaf rust) | 2 µg/mL (≈ 3.46 µM) | 0.08 µg/mL (≈ 0.138 µM) | 0.08 µg/mL (≈ 0.138 µM) | 0.4 µg/mL (≈ 0.691 µM) | ≥ 50 µg/mL | 50 µg/mL (≈ 86.4 µM) | ≥ 2 µg/mL | 0.4 µg/mL (≈ 0.691 µM) | – |
| COc1ccc(F)cc1[C@H](Cn1c(=O)n(C(C)(C)C(=O)NC(C)C)c(=O)c2c(C)c(-n3nccn3)sc21)OCC(C)(C)C#N [Compound I-213, (R)-2-(1-(2-(2-cyano-2-methylpropoxy)-2-(5-fluoro-2-methoxyphenyl)ethyl)-5-methyl-2,4-dioxo-6-(2H-1,2,3-triazol-2-yl)-1,4-dihydrothieno[2,3-d]pyrimidin-3 (2H)-yl)-N-isopropyl-2-methylpropanamide] | B (from 50 to 69% control of wheat fusarium head blight) | A (from 70% to 84% control of barley powdery mildew) | B (from 50 to 69% control of Asian soybean rust) | AA (≥85% control of cucumber powdery mildew) | AA (≥85% control of wheat septoria leaf blotch) | B (from 50 to 69% control of wheat leaf rust) | ≥ 0.08 µg/mL | 0.08 µg/mL (≈ 0.128 µM) | 0.08 µg/mL (≈ 0.128 µM) | 0.4 µg/mL (≈ 0.639 µM) | > 50 µg/mL | > 50 µg/mL | 0.4 µg/mL (≈ 0.639 µM) | 0.4 µg/mL (≈ 0.639 µM) | – |
| COc1ccc(F)cc1[C@H](Cn1c(=O)n(C(C)(C)C(=O)NC(C)C)c(=O)c2c(C)c(-n3nccn3)sc21)OCCS(C)(=O)=O [Compound I-287, (R)-2-(1-(2-(5-fluoro-2-methoxyphenyl)-2-(2-(methylsulfonyl)ethoxy)ethyl)-5-methyl-2,4-dioxo-6-(2H-1,2,3-triazol-2-yl)-1,4-dihydrothieno[2,3-d]pyrimidin-3 (2H)-yl)-N-isopropyl-2-methylpropanamide] | C (from 25 to 49% control of wheat fusarium head blight) | AA (≥85% control of barley powdery mildew) | AA (≥85% control of Asian soybean rust) | AA (≥85% control of cucumber powdery mildew) | AA (≥85% control of wheat septoria leaf blotch) | AA (≥85% control of wheat leaf rust) | 0.4 µg/mL (≈ 0.615 µM) | 0.08 µg/mL (≈ 0.123 µM) | 0.4 µg/mL (≈ 0.615 µM) | 2 µg/mL (≈ 3.07 µM) | ≥ 50 µg/mL | 10 µg/mL (≈ 15.4 µM) | 0.4 µg/mL (≈ 0.615 µM) | 2 µg/mL (≈ 3.07 µM) | – |
| CCc1ccc(F)cc1[C@H](Cn1c(=O)n(C(C)(C)C(=O)NC(C)C)c(=O)c2c(C)c(-n3nccn3)sc21)OC[C@@H](C)C#N [Compound I-281, 2-(1-((R)-2-((S)-2-cyanopropoxy)-2-(2-ethyl-5-fluorophenyl)ethyl)-5-methyl-2,4-dioxo-6-(2H-1,2,3-triazol-2-yl)-1,4-dihydrothieno[2,3-d]pyrimidin-3 (2H)-yl)-N-isopropyl-2-methylpropanamide] | C (from 25 to 49% control of wheat fusarium head blight) | AA (≥85% control of barley powdery mildew) | D (<25% control of Asian soybean rust) | AA (≥85% control of cucumber powdery mildew) | AA (≥85% control of wheat septoria leaf blotch) | AA (≥85% control of wheat leaf rust) | 2 µg/mL (≈ 3.28 µM) | 0.08 µg/mL (≈ 0.131 µM) | 0.08 µg/mL (≈ 0.131 µM) | 0.08 µg/mL (≈ 0.131 µM) | > 50 µg/mL | > 50 µg/mL | 0.08 µg/mL (≈ 0.131 µM) | 0.08 µg/mL (≈ 0.131 µM) | – |
